Laboratory results as given in US20080161232A1, “C5a Receptor Antagonist” (JERINI AG, priority 2005, published 2008).
Starred links: 1 amine or outer side, 2 acyl side, 3 side chain; linkers in the order of their positions; H or OH if unused. Non-standard residues stand in square brackets, D forms with d. Residues, ends and D or L forms follow the SMILES beside them. *: point of attachment. N(3,4-(MeO)2phenethyl)Gly = COc1ccc(CCNCC(=O)O)cc1OC; Phe(4-guanidino) = N=C(N)Nc1ccc(C[C@H](N)C(=O)O)cc1; Gly(N-(CH2)3N-pyrrolidone) = O=C(O)CNCCCN1CCCC1=O; Phe(3,4-F2) = N[C@@H](Cc1ccc(F)c(F)c1)C(=O)O; Phe(3-Cl) = N[C@@H](Cc1cccc(Cl)c1)C(=O)O; Phe(3-F) = N[C@@H](Cc1cccc(F)c1)C(=O)O; Phe(4-F) = N[C@@H](Cc1ccc(F)cc1)C(=O)O; X5 = CCN(CC)CCC[C@H](N[*:1])C(=O)[*:2]; 1Nal = N[C@@H](Cc1cccc2ccccc12)C(=O)O; Bta = N[C@@H](Cc1csc2ccccc12)C(=O)O; cisHyp = O=C(O)[C@@H]1C[C@H](O)CN1; Hyp = O=C(O)[C@@H]1C[C@@H](O)CN1; d(hLeu) = CC(C)CC[C@@H](N)C(=O)O; hArg = N=C(N)NCCCC[C@H](N)C(=O)O; 2Pal = N[C@@H](Cc1ccccn1)C(=O)O; β3hF = N[C@H](CC(=O)O)Cc1ccccc1; Cha = N[C@@H](CC1CCCCC1)C(=O)O; dCha = N[C@H](CC1CCCCC1)C(=O)O; Agb = N=C(N)NCC[C@H](N)C(=O)O; X14 = NC(=O)N(Cc1ccccc1)N*; NMeS = CN[C@@H](CO)C(=O)O; hSer = N[C@@H](CCO)C(=O)O; NMeA = CN[C@@H](C)C(=O)O; Orn = NCCC[C@H](N)C(=O)O; Aze = O=C(O)[C@@H]1CCN1; NPrGly = CCCNCC(=O)O; Nme = COCCNCC(=O)O

Each molecule was assayed against T1, human C5aR(CD88) (Homo sapiens, UniProt P21730) (assay: Determination of the IC50 value in an enzyme release assay (functional assay, antagonistic activity)). Conditions: activity (group), antagonistic activity; IC50 group in enzyme release assay, RBL cells expressing human C5aR(CD88).
T1 construct: expressed in transfected cells; host or cells: rat basophilic leukemia cells (RBL)
T1 sequence (P21730 1-350): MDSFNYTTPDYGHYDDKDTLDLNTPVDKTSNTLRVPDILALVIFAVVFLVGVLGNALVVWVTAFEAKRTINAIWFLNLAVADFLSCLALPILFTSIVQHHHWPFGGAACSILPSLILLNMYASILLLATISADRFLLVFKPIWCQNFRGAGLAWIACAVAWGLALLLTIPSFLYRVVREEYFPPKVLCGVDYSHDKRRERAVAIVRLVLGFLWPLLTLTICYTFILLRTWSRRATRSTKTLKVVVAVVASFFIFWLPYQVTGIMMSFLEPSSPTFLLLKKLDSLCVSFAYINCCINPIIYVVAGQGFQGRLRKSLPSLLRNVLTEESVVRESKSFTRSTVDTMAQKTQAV
Type: cell-based

| Compound | IC50 [nM] |
| --- | --- |
| CC(=O)N[C@@H](Cc1ccccc1)C(=O)N[C@@H](CCCN)C(=O)N1CCC[C@H]1C(=O)N[C@@H](CC1CCCCC1)C(=O)N[C@@H](Cc1csc2ccccc12)C(=O)NN(Cc1ccccc1)C(N)=O [Compound 257, Ac-Phe-Orn-Pro-Cha-Bta-NH-NBn-CO—NH2] (Ac-F[Orn]P[Cha][Bta]-X14) | 50 to 200 |

Same assay, conditions: antagonistic activity; IC50 group in enzyme release assay, RBL cells expressing human C5aR(CD88); read-out: activity (group)

| IC50 [nM] | Compound |
| --- | --- |
| 10 to 20 | CC(=O)N[C@@H](Cc1ccccc1)C(=O)N[C@@H](CCCCNC(=N)N)C(=O)N1CC[C@H]1C(=O)N[C@H](CC1CCCCC1)C(=O)N[C@@H](Cc1csc2ccccc12)C(=O)N[C@@H](Cc1ccccc1)C(N)=O [Compound 229, Ac-Phe-Har-Aze-cha-Bta-Phe-NH2] (Ac-F[hArg][Aze][dCha][Bta]F-NH2) |
| 50 to 200 | CC(=O)N[C@@H](Cc1ccccc1)C(=O)N[C@@H](Cc1c[nH]cn1)C(=O)N1CCC[C@H]1C(=O)N[C@H](CC1CCCCC1)C(=O)N[C@@H](Cc1csc2ccccc12)C(=O)N[C@@H](Cc1ccccc1)C(N)=O [Compound 230, Ac-Phe-His-Pro-cha-Bta-Phe-NH2] (Ac-FHP[dCha][Bta]F-NH2) |
| 20 to 50 | CC(=O)N[C@@H](Cc1ccccc1)C(=O)N[C@@H](CCCN)C(=O)N1CC[C@H]1C(=O)N[C@H](CCC(C)C)C(=O)N[C@@H](Cc1csc2ccccc12)C(=O)N[C@@H](Cc1ccccc1)C(N)=O [Compound 234, Ac-Phe-Orn-Aze-hle-Bta-Phe-NH2] (Ac-F[Orn][Aze][d(hLeu)][Bta]F-NH2) |
| 50 to 200 | CC(=O)N[C@@H](Cc1ccccc1)C(=O)N[C@@H](CCCN)C(=O)N1C[C@@H](O)C[C@H]1C(=O)N[C@H](CCC(C)C)C(=O)N[C@@H](Cc1ccc(F)cc1)C(=O)N[C@@H](Cc1ccccc1)C(N)=O [Compound 236, Ac-Phe-Orn-Chy-hle-Pff-Phe-NH2] (Ac-F[Orn][cisHyp][d(hLeu)][Phe(4-F)]F-NH2) |
| 50 to 200 | CCCN(CC(=O)N[C@H](CC1CCCCC1)C(=O)N[C@@H](Cc1csc2ccccc12)C(=O)N[C@@H](Cc1ccccc1)C(N)=O)C(=O)[C@H](CCCN)NC(=O)[C@H](Cc1ccccc1)NC(C)=O [Compound 237, Ac-Phe-Orn-G24-cha-Bta-Phe-NH2] (Ac-F[Orn][NPrGly][dCha][Bta]F-NH2) |
| 50 to 200 | COCCN(CC(=O)N[C@H](CC1CCCCC1)C(=O)N[C@@H](Cc1csc2ccccc12)C(=O)N[C@@H](Cc1ccccc1)C(N)=O)C(=O)[C@H](CCCN)NC(=O)[C@H](Cc1ccccc1)NC(C)=O [Compound 238, Ac-Phe-Orn-G25-cha-Bta-Phe-NH2] (Ac-F[Orn][Nme][dCha][Bta]F-NH2) |
| 50 to 200 | CC(=O)N[C@@H](Cc1ccccc1)C(=O)N[C@@H](CCCN)C(=O)N(CCCN1CCCC1=O)CC(=O)N[C@H](CC1CCCCC1)C(=O)N[C@@H](Cc1csc2ccccc12)C(=O)N[C@@H](Cc1ccccc1)C(N)=O [Compound 241, Ac-Phe-Orn-G30-cha-Bta-Phe-NH2] (Ac-F[Orn][Gly(N-(CH2)3N-pyrrolidone)][dCha][Bta]F-NH2) |
| 50 to 200 | COc1ccc(CCN(CC(=O)N[C@H](CC2CCCCC2)C(=O)N[C@@H](Cc2csc3ccccc23)C(=O)N[C@@H](Cc2ccccc2)C(N)=O)C(=O)[C@H](CCCN)NC(=O)[C@H](Cc2ccccc2)NC(C)=O)cc1OC [Compound 242, Ac-Phe-Orn-G31-cha-Bta-Phe-NH2] (Ac-F[Orn][N(3,4-(MeO)2phenethyl)Gly][dCha][Bta]F-NH2) |
| 50 to 200 | CC(=O)N[C@@H](Cc1ccccc1)C(=O)N[C@@H](CCCN)C(=O)N[C@@H](CCO)C(=O)N[C@H](CC1CCCCC1)C(=O)N[C@@H](Cc1csc2ccccc12)C(=O)N[C@@H](Cc1ccccc1)C(N)=O [Compound 243, Ac-Phe-Orn-Hse-cha-Bta-Phe-NH2] (Ac-F[Orn][hSer][dCha][Bta]F-NH2) |
| 50 to 200 | CC(=O)N[C@@H](Cc1ccccc1)C(=O)N[C@@H](CCCN)C(=O)N1C[C@H](O)C[C@H]1C(=O)N[C@H](CCC(C)C)C(=O)N[C@@H](Cc1ccc(F)cc1)C(=O)N[C@@H](Cc1ccccc1)C(N)=O [Compound 245, Ac-Phe-Orn-Hyp-hle-Pff-Phe-NH2] (Ac-F[Orn][Hyp][d(hLeu)][Phe(4-F)]F-NH2) |
| 50 to 200 | CC(=O)N[C@@H](Cc1ccccc1)C(=O)N[C@@H](CCCN)C(=O)N(C)[C@@H](C)C(=O)N[C@H](CC1CCCCC1)C(=O)N[C@@H](Cc1csc2ccccc12)C(=O)N[C@@H](Cc1ccccc1)C(N)=O [Compound 246, Ac-Phe-Orn-NMA-cha-Bta-Phe-NH2] (Ac-F[Orn][NMeA][dCha][Bta]F-NH2) |
| 50 to 200 | CC(=O)N[C@@H](Cc1ccccc1)C(=O)N[C@@H](CCCN)C(=O)N(C)[C@@H](CO)C(=O)N[C@H](CC1CCCCC1)C(=O)N[C@@H](Cc1csc2ccccc12)C(=O)N[C@@H](Cc1ccccc1)C(N)=O [Compound 247, Ac-Phe-Orn-NMS-cha-Bta-Phe-NH2] (Ac-F[Orn][NMeS][dCha][Bta]F-NH2) |
| 20 to 50 | CC(=O)N[C@@H](Cc1ccccc1)C(=O)N[C@@H](CCCN)C(=O)N1CCC[C@H]1C(=O)N[C@H](CC1CCCCC1)C(=O)N[C@@H](Cc1csc2ccccc12)C(=O)N[C@H](CC(N)=O)Cc1ccccc1 [Compound 250, Ac-Phe-Orn-Pro-cha-Bta-Bhf-NH2] (Ac-F[Orn]P[dCha][Bta][β3hF]-NH2) |
| 50 to 200 | CC(=O)N[C@@H](Cc1ccccc1)C(=O)N[C@@H](CCCN)C(=O)N1CCC[C@H]1C(=O)N[C@H](CC1CCCCC1)C(=O)N[C@@H](Cc1csc2ccccc12)C(=O)N[C@@H](Cc1ccccn1)C(N)=O [Compound 258, Ac-Phe-Orn-Pro-cha-Bta-Opa-NH2] (Ac-F[Orn]P[dCha][Bta][2Pal]-NH2) |

| Compound | IC50 [nM] |
| --- | --- |
| CC(=O)N[C@@H](Cc1ccccc1)C(=O)N[C@@H](Cc1ccc(NC(=N)N)cc1)C(=O)N1CCC[C@H]1C(=O)N[C@H](CC1CCCCC1)C(=O)N[C@@H](Cc1csc2ccccc12)C(=O)N[C@@H](Cc1ccccc1)C(N)=O [Compound 228, Ac-Phe-Guf-Pro-cha-Bta-Phe-NH2] (Ac-F[Phe(4-guanidino)]P[dCha][Bta]F-NH2) | 20 to 50 |
| CC(=O)N[C@@H](Cc1ccccc1)C(=O)N[C@@H](CCNC(=N)N)C(=O)N1CCC[C@H]1C(=O)N[C@H](CC1CCCCC1)C(=O)N[C@@H](Cc1csc2ccccc12)C(=O)N[C@@H](Cc1ccccc1)C(N)=O [Compound 231, Ac-Phe-L22-Pro-cha-Bta-Phe-NH2] (Ac-F[Agb]P[dCha][Bta]F-NH2) | 10 to 20 |
| CC(=O)NCCC[C@H](NC(=O)[C@H](Cc1ccccc1)NC(C)=O)C(=O)N1CCC[C@H]1C(=O)N[C@H](CC1CCCCC1)C(=O)N[C@@H](Cc1csc2ccccc12)C(=O)N[C@@H](Cc1ccccc1)C(N)=O [Compound 232, Ac-Phe-OrA-Pro-cha-Bta-Phe-NH2] (Ac-F[Orn](Ac)P[dCha][Bta]F-NH2) | 50 to 200 |
| CCN(CC)CCC[C@H](NC(=O)[C@H](Cc1ccccc1)NC(C)=O)C(=O)N1CCC[C@H]1C(=O)N[C@H](CC1CCCCC1)C(=O)N[C@@H](Cc1csc2ccccc12)C(=O)N[C@@H](Cc1ccccc1)C(N)=O [Compound 233, Ac-Phe-OrE-Pro-cha-Bta-Phe-NH2] (Ac-F[X5]P[dCha][Bta]F-NH2) | 50 to 200 |
| CC(=O)N[C@@H](Cc1ccccc1)C(=O)N[C@@H](CCCN)C(=O)N1C[C@@H](O)C[C@H]1C(=O)N[C@H](CC1CCCCC1)C(=O)N[C@@H](Cc1csc2ccccc12)C(=O)N[C@@H](Cc1ccccc1)C(N)=O [Compound 235, Ac-Phe-Orn-Chy-cha-Bta-Phe-NH2] (Ac-F[Orn][cisHyp][dCha][Bta]F-NH2) | 50 to 200 |
| CC(=O)N[C@@H](Cc1ccccc1)C(=O)N[C@@H](CCCN)C(=O)N1C[C@H](O)C[C@H]1C(=O)N[C@H](CCC(C)C)C(=O)N[C@@H](Cc1csc2ccccc12)C(=O)N[C@@H](Cc1ccccc1)C(N)=O [Compound 244, Ac-Phe-Orn-Hyp-hle-Bta-Phe-NH2] (Ac-F[Orn][Hyp][d(hLeu)][Bta]F-NH2) | 50 to 200 |
| CC(=O)N[C@@H](Cc1ccccc1)C(=O)N[C@@H](CCCN)C(=O)N1CCC[C@H]1C(=O)N[C@H](CC1CCCCC1)C(=O)N[C@@H](Cc1cccc2ccccc12)C(=O)N[C@@H](Cc1ccccc1)C(N)=O [Compound 248, Ac-Phe-Orn-Pro-cha-1Ni-Phe-NH2] (Ac-F[Orn]P[dCha][1Nal]F-NH2) | 50 to 200 |
| CC(=O)N[C@@H](Cc1ccccc1)C(=O)N[C@@H](CCCN)C(=O)N1CCC[C@H]1C(=O)N[C@H](CC1CCCCC1)C(=O)N[C@@H](Cc1csc2ccccc12)C(=O)N[C@@H](Cc1cccc2ccccc12)C(N)=O [Compound 249, Ac-Phe-Orn-Pro-cha-Bta-1Ni—NH2] (Ac-F[Orn]P[dCha][Bta][1Nal]-NH2) | 50 to 200 |
| CC(=O)N[C@@H](Cc1ccccc1)C(=O)N[C@@H](CCCN)C(=O)N1CCC[C@H]1C(=O)N[C@H](CC1CCCCC1)C(=O)N[C@@H](Cc1csc2ccccc12)C(=O)N[C@@H](Cc1ccc(F)c(F)c1)C(N)=O [Compound 251, Ac-Phe-Orn-Pro-cha-Bta-Dff-NH2] (Ac-F[Orn]P[dCha][Bta][Phe(3,4-F2)]-NH2) | 20 to 50 |
| CC(=O)N[C@@H](Cc1ccccc1)C(=O)N[C@@H](CCCN)C(=O)N1CCC[C@H]1C(=O)N[C@H](CC1CCCCC1)C(=O)N[C@@H](Cc1csc2ccccc12)C(=O)N[C@@H](Cc1cccc(Cl)c1)C(N)=O [Compound 254, Ac-Phe-Orn-Pro-cha-Bta-Mcf-NH2] (Ac-F[Orn]P[dCha][Bta][Phe(3-Cl)]-NH2) | 50 to 200 |
| CC(=O)N[C@@H](Cc1ccccc1)C(=O)N[C@@H](CCCN)C(=O)N1CCC[C@H]1C(=O)N[C@H](CC1CCCCC1)C(=O)N[C@@H](Cc1csc2ccccc12)C(=O)N[C@@H](Cc1cccc(F)c1)C(N)=O [Compound 255, Ac-Phe-Orn-Pro-cha-Bta-Mff-NH2] (Ac-F[Orn]P[dCha][Bta][Phe(3-F)]-NH2) | 10 to 20 |
